From patent US20240309038A1, “NOVEL GALACTOSIDE INHIBITOR OF GALECTINS” (GALECTO BIOTECH AB, priority 2020, published 2024)

Columns and labels:
Human hepatic Clint = type: in vitro ADME
Gal-3 = Gal-3 (Homo sapiens, UniProt P17931); assay: Fluorescence anisotropy assay, inhibition of galectin / fluorescein tagged saccharide probe interaction; type: binding
Description: The affinity of Example 1-59 for galectins were determined by a fluorescence anisotropy assay where the compound was used as an inhibitor of the interaction between galectin and a fluorescein tagged saccharide probe as described Sörme, P., Kahl-Knutsson, B., Huflejt, M., Nilsson, U. J., and Leffler H. (2004) Fluorescence polarization as an analytical tool to evaluate galectin-ligand interactions. Anal. Biochem. 334: 36-47, (Sarme et al., 2004)

[1] = CACO-2 A > B permeability; type: in vitro ADME; conditions: human
From the text: The compounds of the present invention are novel β-D-galactopyranose compounds that unexpectedly have shown high affinity for galectin-3 and are considered novel potent drug candidates. In addition, it is seen that with these compounds the advantage is that the pyrazole moiety A^1 results in an improved uptake over CACO-2 cells predicting high oral bioavailability after oral administration and this is supported by disclosed ADME data herein. Further compared to compounds where A^1 is a triazole moiety this improvement is significant.

Sequence of Gal-3 (P17931 whole entry, species assumed): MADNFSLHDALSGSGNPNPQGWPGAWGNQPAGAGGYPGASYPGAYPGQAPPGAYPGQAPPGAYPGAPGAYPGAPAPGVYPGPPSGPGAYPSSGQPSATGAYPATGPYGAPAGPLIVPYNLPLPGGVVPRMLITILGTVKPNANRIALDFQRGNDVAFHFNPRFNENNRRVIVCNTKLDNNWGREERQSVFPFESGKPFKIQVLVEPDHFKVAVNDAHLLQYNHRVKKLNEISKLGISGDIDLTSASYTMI

Row | Structure (SMILES) | CLint scaled (Human hepatic Clint) | Kd (Gal-3) | Papp A→B [1]
1 | Cc1nc([C@@H]2OC(CO)[C@H](O)C(n3cc(-c4cc(F)c(F)c(F)c4)cn3)C2O)n(-c2ccc3nc(C)sc3c2)n1 (stereo in doubt) [Example 8, 6-{5-{3-Deoxy-3-[4-(3,4,5-trifluorophenyl)-1H-1,2-pyrazol-1-yl]-β-D-galactopyranosyl}-3-methyl-1H-1,2,4-triazol-1-yl}-2-methylbenzothiazole] | 0.3 mL/min/kg | 22 nM | 17 ×10⁻⁶ cm/s
2 | Cc1nc([C@@H]2OC(CO)[C@H](O)C(n3cc(-c4cc(F)c(F)c(F)c4)cn3)C2O)n(-c2cc(Cl)cnc2C2CC2)n1 (stereo in doubt) [Example 13, 5-Chloro-3-{5-{3-deoxy-3-[4-(3,4,5-trifluorophenyl)-1H-1,2-pyrazol-1-yl]-β-D-galactopyranosyl}-3-methyl-1H-1,2,4-triazol-1-yl}-2-cyclopropylpyridine] | 0.2 mL/min/kg | 15 nM | 10 ×10⁻⁶ cm/s
3 | Cc1nc([C@@H]2OC(CO)[C@H](O)C(n3cc(-c4cc(F)c(Cl)c(F)c4)cn3)C2O)n(-c2ccc3nc(C)sc3c2)n1 (stereo in doubt) [Example 9, 6-{5-{3-[4-(4-Chloro-3,5-difluorophenyl)-1H-1,2-pyrazol-1-yl]-3-deoxy-β-D-galactopyranosyl}-3-methyl-1H-1,2,4-triazol-1-yl}-2-methylbenzothiazole] | 0.6 mL/min/kg | 12 nM | 20 ×10⁻⁶ cm/s
4 | Cc1nc([C@@H]2OC(CO)[C@H](O)C(n3cc(-c4cc(F)c(Cl)c(F)c4)cn3)C2O)n(-c2cc(Cl)ccc2C(F)(F)F)n1 (stereo in doubt) [Example 5, 1-{5-{3-[4-(4-Chloro-3,5-difluorophenyl)-1H-1,2-pyrazol-1-yl]-3-deoxy-β-D-galactopyranosyl}-3-methyl-1H-1,2,4-triazol-1-yl}-5-chloro-2-(trifluoromethyl)benzene] | 0.4 mL/min/kg | 6 nM | 18 ×10⁻⁶ cm/s
5 | Cc1nc([C@@H]2OC(CO)[C@H](O)C(n3cc(-c4cc(F)c(F)c(F)c4)cn3)C2O)n(-c2cc(F)c3nc(C)sc3c2)n1 (stereo in doubt) [Example 39, 6-{5-{3-Deoxy-3-[4-(3,4,5-trifluorophenyl)-1H-1,2-pyrazol-1-yl]-β-D-galactopyranosyl}-3-methyl-1H-1,2,4-triazol-1-yl}-4-fluoro-2-methylbenzothiazole] |  | 10 nM | 
6 | Cc1nc([C@@H]2OC(CO)[C@H](O)C(n3cc(-c4cc(F)c(Cl)c(F)c4)cn3)C2O)n(-c2cc(Cl)cnc2C2CC2)n1 (stereo in doubt) [Example 1, 3-{5-{3-[4-(4-Chloro-3,5-difluorophenyl)-1H-1,2-pyrazol-1-yl]-3-deoxy-β-D-galactopyranosyl}-3-methyl-1H-1,2,4-triazol-1-yl}-5-chloro-2-cyclopropylpyridine] | 1.3 mL/min/kg | 32 nM | 18 ×10⁻⁶ cm/s
7 | COc1ccccc1-c1nn(C2C(O)[C@H](c3nc(C)nn3-c3cc(Cl)ccc3C(F)(F)F)OC(CO)[C@@H]2O)cc1-c1cc(F)c(F)c(F)c1 (stereo in doubt) [Example 52, 5-Chloro-1-{5-{3-deoxy-3-[4-(3,4,5-trifluorophenyl)-3-(2-methoxyphenyl)-1H-1,2-pyrazol-1-yl]-β-D-galactopyranosyl}-3-methyl-1H-1,2,4-triazol-1-yl}-2-(trifluoromethyl)benzene] |  | 20 nM | 
8 | Cc1nc([C@@H]2OC(CO)[C@H](O)C(n3cc(-c4cc(F)c(F)c(F)c4)c(-c4ccccc4F)n3)C2O)n(-c2cc(Cl)ccc2C(F)(F)F)n1 (stereo in doubt) [Example 48, 5-Chloro-1-{5-{3-deoxy-3-[4-(3,4,5-trifluorophenyl)-3-(2-fluorophenyl)-1H-1,2-pyrazol-1-yl]-β-D-galactopyranosyl}-3-methyl-1H-1,2,4-triazol-1-yl}-2-(trifluoromethyl)benzene] |  | 54 nM | 
9 | Cc1nc([C@@H]2OC(CO)[C@H](O)C(n3cc(-c4cc(F)c(F)c(F)c4)c(Cc4ccccc4)n3)C2O)n(-c2cc(Cl)ccc2C(F)(F)F)n1 (stereo in doubt) [Example 50, 1-{5-{3-[3-Benzyl-4-(3,4,5-trifluorophenyl)-1H-1,2-pyrazol-1-yl]-3-deoxy-β-D-galactopyranosyl}-3-methyl-1H-1,2,4-triazol-1-yl}-5-chloro-2-(trifluoromethyl)benzene] |  | 36 nM | 
10 | Cc1nc([C@@H]2OC(CO)[C@H](O)C(n3cc(-c4cc(F)c(F)c(F)c4)c(-c4ccc(F)cc4)n3)C2O)n(-c2cc(Cl)ccc2C(F)(F)F)n1 (stereo in doubt) [Example 55, 5-Chloro-1-{5-{3-deoxy-3-[4-(3,4,5-trifluorophenyl)-3-(4-fluorophenyl)-1H-1,2-pyrazol-1-yl]-β-D-galactopyranosyl}-3-methyl-1H-1,2,4-triazol-1-yl}-2-(trifluoromethyl)benzene] |  | 100 nM | 
11 | Cc1nc([C@@H]2OC(CO)[C@H](O)C(n3cc(-c4cc(F)c(F)c(F)c4)cn3)C2O)n(-c2ccc3nc(C)sc3c2F)n1 (stereo in doubt) [Example 38, 6-{5-{3-Deoxy-3-[4-(3,4,5-trifluorophenyl)-1H-1,2-pyrazol-1-yl]-β-D-galactopyranosyl}-3-methyl-1H-1,2,4-triazol-1-yl}-7-fluoro-2-methylbenzothiazole] |  | 210 nM | 
12 | Cc1nc([C@@H]2OC(CO)[C@H](O)C(n3cc(-c4cc(F)c(F)c(F)c4)cn3)C2O)n(-c2cc(Br)ccc2C(F)(F)F)n1 (stereo in doubt) [Example 24, 5-Bromo-1-{5-{3-deoxy-3-[4-(3,4,5-trifluorophenyl)-1H-1,2-pyrazol-1-yl]-β-D-galactopyranosyl}-3-methyl-1H-1,2,4-triazol-1-yl}-2-(trifluoromethyl)benzene] |  | 2 nM | 
13 | Cc1nc([C@@H]2OC(CO)[C@H](O)C(n3cc(-c4cccc(F)n4)cn3)C2O)n(-c2cc(Cl)ccc2C(F)(F)F)n1 (stereo in doubt) [Example 6, 5-Chloro-1-{5-{3-deoxy-3-[4-(6-fluoropyridin-2-yl)-1H-1,2-pyrazol-1-yl]-β-D-galactopyranosyl}-3-methyl-1H-1,2,4-triazol-1-yl}-2-(trifluoromethyl)benzene] |  | 130 nM | 
14 | Cc1nc([C@@H]2OC(CO)[C@H](O)C(n3cc(-c4ccc(C(F)(F)F)cc4)cn3)C2O)n(-c2cc(Cl)ccc2C(F)(F)F)n1 (stereo in doubt) [Example 56, 5-Chloro-1-{5-{3-deoxy-3-{4-[4-(trifluoromethyl)phenyl]-1H-1,2-pyrazol-1-yl}-β-D-galactopyranosyl}-3-methyl-1H-1,2,4-triazol-1-yl}-2-(trifluoromethyl)benzene] |  | 110 nM | 
